According to US10004701B2, “Methods and compositions for treating infection” (UNIVERSITY OF ROCHESTER, priority 2012, dated 2018):
Structures can show the parent of a compound that is named as a salt. Where two headings read alike, the source gives them in different places.

How the values were obtained:
Assay in all cases: AK assay 384-well format, Prestwick library screening
[1] = test system: A. baumannii strain 98-37-09; assay type: cell-based, Acinetobacter baumannii; details: 50 μM final drug concentration; for fold induction at 50 µM: Acinetobacter baumannii, 983709, 3 h
[2] = test system: E. faecium; assay type: cell-based, Enterococcus faecium; details: 50 μM final drug concentration; for fold induction at 50 µM: Enterococcus faecium, 3 h
[3] = test system: P. aeruginosa; assay type: cell-based, Pseudomonas aeruginosa; details: 50 μM final drug concentration; for fold induction at 50 µM: Pseudomonas aeruginosa, 3 h
[4] = test system: S. aureus strain USA300-0114; assay type: cell-based, Staphylococcus aureus; details: 50 μM final drug concentration; for fold induction at 50 µM: Staphylococcus aureus, USA300, 3 h
[5] = test system: K. pneumoniae; assay type: cell-based, Klebsiella pneumoniae; details: 50 μM final drug concentration; for fold induction at 50 µM: Klebsiella pneumoniae, 3 h
[6] = test system: E. coli; assay type: cell-based, Escherichia coli; details: 50 μM final drug concentration; for fold induction at 50 µM: Escherichia coli, 3 h
[7] = test system: E. cloacae; assay type: cell-based, Enterobacter cloacae; details: 50 μM final drug concentration; for fold induction at 50 µM: Enterobacter cloacae, 3 h
[8] = planktonic A. baumannii, 384-well, cutoff for positive-scoring molecules 3-fold increase, read-out: AK-based Prestwick Library Screening Results: A. baumannii (increase in extracellular AK activity)
[9] = planktonic E. faecium, 384-well, cutoff for positive-scoring molecules 3-fold increase, read-out: AK-based Prestwick Library Screening Results: E. faecium (increase in extracellular AK activity)
[10] = planktonic P. aeruginosa, 384-well, cutoff for positive-scoring molecules 3-fold increase, read-out: AK-based Prestwick Library Screening Results: P. aeruginosa (increase in extracellular AK activity)
[11] = planktonic S. aureus, 384-well, cutoff for positive-scoring molecules 3-fold increase, read-out: AK-based Prestwick Library Screening Results: S. aureus (increase in extracellular AK activity)
[12] = planktonic K. pneumoniae, 384-well, cutoff for positive-scoring molecules 3-fold increase, read-out: AK-based Prestwick Library Screening Results: K. pneumoniae (increase in extracellular AK activity)
[13] = planktonic E. coli, 384-well, cutoff for positive-scoring molecules 3-fold increase, read-out: AK-based Prestwick Library Screening Results: E. coli (increase in extracellular AK activity)
[14] = planktonic E. cloacae, 384-well, cutoff for positive-scoring molecules 3-fold increase, read-out: AK-based Prestwick Library Screening Results: E. cloacae (increase in extracellular AK activity)
[15] = planktonic, cutoff for positive-scoring molecules 3-fold increase
[16] = planktonic, cutoff for positive-scoring molecules 3-fold increase, read-out: AK-based Prestwick Library Screening Results, A. baumannii (fold increase in extracellular AK activity)
[17] = planktonic, cutoff for positive-scoring molecules 3-fold increase, read-out: AK-based Prestwick Library Screening Results, E. faecium (fold increase in extracellular AK activity)
[18] = planktonic, cutoff for positive-scoring molecules 3-fold increase, read-out: AK-based Prestwick Library Screening Results, P. aeruginosa (fold increase in extracellular AK activity)
[19] = planktonic, cutoff for positive-scoring molecules 3-fold increase, read-out: AK-based Prestwick Library Screening Results, S. aureus (fold increase in extracellular AK activity)
[20] = planktonic, cutoff for positive-scoring molecules 3-fold increase, read-out: AK-based Prestwick Library Screening Results, K. pneumoniae (fold increase in extracellular AK activity)
[21] = planktonic, cutoff for positive-scoring molecules 3-fold increase, read-out: AK-based Prestwick Library Screening Results, E. coli (fold increase in extracellular AK activity)
[22] = planktonic, cutoff for positive-scoring molecules 3-fold increase, read-out: AK-based Prestwick Library Screening Results, E. cloacae (fold increase in extracellular AK activity)

C[C@@H]1CC[C@H]2[C@@H](C)C(=O)O[C@@H]3O[C@@]4(C)CC[C@@H]1[C@]32OO4 [Artemisinin]
fold induction at 50 µM ([1]; planktonic A. baumannii, cutoff for positive-scoring molecules 3-fold increase, read-out: AK-based Prestwick Library Screening Results, A. baumannii (increase in extracellular AK activity)): 0.7 | fold induction at 50 µM ([2]; planktonic E. faecium, cutoff for positive-scoring molecules 3-fold increase, read-out: AK-based Prestwick Library Screening Results, E. faecium (increase in extracellular AK activity)): 0.9 | fold induction at 50 µM ([3]; planktonic P. aeruginosa, cutoff for positive-scoring molecules 3-fold increase, read-out: AK-based Prestwick Library Screening Results, P. aeruginosa (increase in extracellular AK activity)): 0.6 | fold induction at 50 µM ([4]; planktonic S. aureus, cutoff for positive-scoring molecules 3-fold increase, read-out: AK-based Prestwick Library Screening Results, S. aureus (increase in extracellular AK activity)): 0.5 | fold induction at 50 µM ([5]; planktonic K. pneumoniae, cutoff for positive-scoring molecules 3-fold increase, read-out: AK-based Prestwick Library Screening Results, K. pneumoniae (increase in extracellular AK activity)): 0.6 | fold induction at 50 µM ([6]; planktonic E. coli, cutoff for positive-scoring molecules 3-fold increase, read-out: AK-based Prestwick Library Screening Results, E. coli (increase in extracellular AK activity)): 0.5 | fold induction at 50 µM ([7]; planktonic E. cloacae, cutoff for positive-scoring molecules 3-fold increase, read-out: AK-based Prestwick Library Screening Results, E. cloacae (increase in extracellular AK activity)): 0.7

Cc1cc(-c2ccccc2)nnc1NCCN1CCOCC1 [Minaprine dihydrochloride]
fold induction at 50 µM [1, 8]: 1.3 | fold induction at 50 µM [2, 9]: 0.8 | fold induction at 50 µM [3, 10]: 1.1 | fold induction at 50 µM [4, 11]: 1 | fold induction at 50 µM [5, 12]: 0.9 | fold induction at 50 µM [6, 13]: 1.3 | fold induction at 50 µM [7, 14]: 1.3

O.Oc1cc(O)c2c(c1)OC(c1ccc(O)c(O)c1)C(O)C2 (racemic) [Catechin-(+,−) hydrate]
AK-based Prestwick Library Screening Results, A. baumannii (fold increase in extracellular AK activity) [1, 15]: 0.7 | AK-based Prestwick Library Screening Results, E. faecium (fold increase in extracellular AK activity) [2, 15]: 0.9 | AK-based Prestwick Library Screening Results, P. aeruginosa (fold increase in extracellular AK activity) [3, 15]: 0.6 | AK-based Prestwick Library Screening Results, S. aureus (fold increase in extracellular AK activity) [4, 15]: 0.7 | AK-based Prestwick Library Screening Results, K. pneumoniae (fold increase in extracellular AK activity) [5, 15]: 0.6 | AK-based Prestwick Library Screening Results, E. coli (fold increase in extracellular AK activity) [6, 15]: 0.7 | AK-based Prestwick Library Screening Results, E. cloacae (fold increase in extracellular AK activity) [7, 15]: 1.0

CCCC(=O)Nc1ccc(OCC(O)CNC(C)C)c(C(C)=O)c1 (stereo not drawn) [Acebutolol hydrochloride]
fold induction at 50 µM [1, 8]: 1.3 | fold induction at 50 µM [2, 9]: 1.1 | fold induction at 50 µM [3, 10]: 1.1 | fold induction at 50 µM [4, 11]: 1.1 | fold induction at 50 µM [5, 12]: 0.9 | fold induction at 50 µM [6, 13]: 1.3 | fold induction at 50 µM [7, 14]: 1.2

CCC1(c2cccc(O)c2)CCCCN(C)C1 (stereo not drawn) [Meptazinol hydrochloride]
fold induction at 50 µM ([1]; planktonic A. baumannii, […], read-out: AK-based Prestwick library screening result, A. baumannii (fold increase in extracellular AK activity)): 1.1 | fold induction at 50 µM ([2]; planktonic E. faecium, […], read-out: AK-based Prestwick library screening result, E. faecium (fold increase in extracellular AK activity)): 1.1 | fold induction at 50 µM ([3]; planktonic P. aeruginosa, […], read-out: AK-based Prestwick library screening result, P. aeruginosa (fold increase in extracellular AK activity)): 1.1 | fold induction at 50 µM ([4]; planktonic S. aureus, […], read-out: AK-based Prestwick library screening result, S. aureus (fold increase in extracellular AK activity)): 0.9 | fold induction at 50 µM ([5]; planktonic K. pneumoniae, […], read-out: AK-based Prestwick library screening result, K. pneumoniae (fold increase in extracellular AK activity)): 0.9 | fold induction at 50 µM ([6]; planktonic E. coli, […], read-out: AK-based Prestwick library screening result, E. coli (fold increase in extracellular AK activity)): 1.3 | fold induction at 50 µM ([7]; planktonic E. cloacae, […], read-out: AK-based Prestwick library screening result, E. cloacae (fold increase in extracellular AK activity)): 1.4

C[C@H]1O[C@@H](O[C@H]2[C@@H](O)C[C@H](O[C@H]3[C@@H](O)C[C@H](O[C@H]4CC[C@@]5(C)[C@H](CC[C@@H]6[C@@H]5C[C@@H](O)[C@]5(C)[C@@H](C7=CC(=O)OC7)CC[C@]65O)C4)O[C@@H]3C)O[C@@H]2C)C[C@H](O)[C@@H]1O [Digoxin]
fold induction at 50 µM ([1]; planktonic A. baumannii, […], read-out: AK-based Prestwick Library Screening Results, A. baumannii (increase in extracellular AK activity)): 0.9 | fold induction at 50 µM ([2]; planktonic E. faecium, […], read-out: AK-based Prestwick Library Screening Results, E. faecium (increase in extracellular AK activity)): 0.9 | fold induction at 50 µM ([3]; planktonic P. aeruginosa, […], read-out: AK-based Prestwick Library Screening Results, P. aeruginosa (increase in extracellular AK activity)): 0.8 | fold induction at 50 µM ([4]; planktonic S. aureus, […], read-out: AK-based Prestwick Library Screening Results, S. aureus (increase in extracellular AK activity)): 0.8 | fold induction at 50 µM ([5]; planktonic K. pneumoniae, […], read-out: AK-based Prestwick Library Screening Results, K. pneumoniae (increase in extracellular AK activity)): 0.7 | fold induction at 50 µM ([6]; planktonic E. coli, […], read-out: AK-based Prestwick Library Screening Results, E. coli (increase in extracellular AK activity)): 0.8 | fold induction at 50 µM ([7]; planktonic E. cloacae, […], read-out: AK-based Prestwick Library Screening Results, E. cloacae (increase in extracellular AK activity)): 1.2

CCC1=C(C)CN(C(=O)NCCc2ccc(S(=O)(=O)NC(=O)N[C@H]3CC[C@H](C)CC3)cc2)C1=O [Glimepiride]
fold induction at 50 µM [1, 16]: 0.7 | fold induction at 50 µM [2, 17]: 1.4 | fold induction at 50 µM [3, 18]: 0.7 | fold induction at 50 µM [4, 19]: 0.5 | fold induction at 50 µM [5, 20]: 0.7 | fold induction at 50 µM [6, 21]: 0.5 | fold induction at 50 µM [7, 22]: 0.9

c1coc(CNc2ncnc3nc[nH]c23)c1 [Compound 6-Furfurylaminopurine, 6-Furfurylaminopurine]
fold induction at 50 µM [1, 16]: 0.7 | fold induction at 50 µM [2, 17]: 0.9 | fold induction at 50 µM [3, 18]: 0.7 | fold induction at 50 µM [4, 19]: 0.6 | fold induction at 50 µM [5, 20]: 0.5 | fold induction at 50 µM [6, 21]: 0.7 | fold induction at 50 µM [7, 22]: 0.9

O=C(O)c1cc(-c2ccc(F)cc2F)ccc1O [Diflunisal]
fold induction at 50 µM ([1]; 384-well format, […], read-out: AK-based Prestwick Library Screening Results, A. baumannii (increase in extracellular AK activity)): 0.7 | fold induction at 50 µM ([2]; 384-well format, […], read-out: AK-based Prestwick Library Screening Results, E. faecium (increase in extracellular AK activity)): 0.9 | fold induction at 50 µM ([3]; 384-well format, […], read-out: AK-based Prestwick Library Screening Results, P. aeruginosa (increase in extracellular AK activity)): 0.6 | fold induction at 50 µM ([4]; 384-well format, […], read-out: AK-based Prestwick Library Screening Results, S. aureus (increase in extracellular AK activity)): 0.6 | fold induction at 50 µM ([5]; 384-well format, […], read-out: AK-based Prestwick Library Screening Results, K. pneumoniae (increase in extracellular AK activity)): 0.6 | fold induction at 50 µM ([6]; 384-well format, […], read-out: AK-based Prestwick Library Screening Results, E. coli (increase in extracellular AK activity)): 0.7 | fold induction at 50 µM ([7]; 384-well format, […], read-out: AK-based Prestwick Library Screening Results, E. cloacae (increase in extracellular AK activity)): 1.2
